Laboratory results as given in US8470765B2, “Polypeptides and antibacterial or antiseptic use of same” (AnGes MG, Inc., priority 2009, dated 2013).
Converted amounts (≈) assume the structure as drawn. No end group written: not given here.

Columns and labels:
[1] = test system: Fusarium solani JCM11383; conditions: Table 4; two tests, first/second value where not identical
[2] = test system: Alternaria alternata JCM5800; conditions: Table 4; two tests, first/second value where not identical
[3] = test system: Trichophyton mentagrophytes NBRC6124; conditions: Table 4; two tests, first/second value where not identical
[4] = test system: Trichophyton rubrum NBRC9185; conditions: Table 4; two tests, first/second value where not identical
[5] = test system: Candida krusei NBRC1395; conditions: Table 4; two tests, first/second value where not identical
[6] = test system: Escherichia coli ATCC 25922; experiment: microbe, parasite or virus in culture; type: cell-based; conditions: Table 5; unit not given
Experimental: (§1) Bacteria (Escherichia coli ATCC 25922, Pseudomonas aeruginosa ATCC 27853, Staphylococcus aureus ATCC29213, Klebsiella pneumoniae JCM 1662, Enterobacter cloacae JCM 1232, Enterobacter aerogenes JCM 1235 and Staphylococcus epidermidis JCM 2414) were inoculated to Mueller-Hinton broth: MHB or LB medium, and cultured at a temperature and period suited for each strain. From the thus obtained colonies, each strain was inoculated to a fresh liquid medium and cultured for 16 to 20 hours. Then an aliquot having a volume (10 to 50 appropriate to each strain was inoculated to a fresh liquid medium and cultured for 4 to 6 hours, followed by the measurement of the absorbance at 600 nm. After comparing the turbidity with McFarland #0.5, the resultant was diluted with a medium. Each strain was added to about 10^5 CFU/mL (final concentration). Each of the peptide solutions to be tested was diluted with MHB to obtain a solution of 128 μg/mL. […] As controls, tobramycin (TOB: aminoglucoside antibiotic), oxacillin (OX:β-lactam antibiotic), meropenem (MEPM: carbapenem antibiotic) and ciprofloxacin (new quinolone antibiotic) were used. […] To a 96-well microtiter plate, 0.1 mL of the inoculation solution and 0.1 mL of the peptide- or positive control-containing medium having the respective concentration were added, and cultured at 37° C. for 16 to 24 hours (or a time period suited for the growth of the respective strain). The well not containing the sample was used as a negative control. After the culturing, the growth was visually observed, and the minimum concentration at which the growth was inhibited was defined as the minimum growth inhibition concentration (MIC). The medium used in this test for bacteria was Mueller-Hinton broth. Independent experiments were carried out twice or more for each strain.

[7] = test system: Pseudomonas aeruginosa ATCC 27853; experiment: microbe, parasite or virus in culture; type: cell-based; conditions: Table 5; unit not given
Experimental: as §1

[8] = test system: Staphylococcus aureus ATCC29213; experiment: microbe, parasite or virus in culture; type: cell-based; conditions: Table 5; unit not given
Experimental: as §1

[9] = test system: Staphylococcus epidermidis JCM 2414; experiment: microbe, parasite or virus in culture; type: cell-based; conditions: Table 5; unit not given
Experimental: as §1

[10] = test system: Escherichia coli ATCC 25922; experiment: ATP Assay (viability at 3 hours), Table 6; type: cell-based; conditions: 3 h, 5 μg/mL
Experimental: (§2) Bacteria (Escherichia coli ATCC 25922, Pseudomonas aeruginosa ATCC 27853, Staphylococcus aureus ATCC29213, and Staphylococcus epidermidis JCM 2414) were inoculated to Mueller-Hinton broth: MHB or LB medium, and cultured at a temperature and period suited for each strain. From the thus obtained colonies, each strain was inoculated to a fresh liquid medium and cultured for 16 to 20 hours. Then an aliquot having a volume (10 to 50 μL) appropriate to each strain was inoculated to a fresh liquid medium and cultured for 4 to 6 hours, followed by the measurement of the absorbance at 600 nm. After comparing the turbidity with McFarland #0.5, the resultant was diluted with a medium. Each strain was added to about 10^5 CFU/mL (final concentration).
(§3) Each of the peptide solutions to be tested was diluted with the medium to obtain a solution of 10 μg/mL. As positive controls, tobramycin (TOB), oxacillin (OX) and meropenem (MEPM) were used. By dilution with sterilized purified water to 1.0 mg/mL, positive control-containing media having concentrations of […], respectively for TOB; 0.5, 0.12 and 0.06 μg/mL, respectively, for OX; and 1.0, 0.25, 0.12, 0.06, 0.03 and 0.008 μg/mL respectively, for MEPM, were prepared. To a 96-well microtiter plate, 0.1 mL of the inoculation solution and 0.1 mL of the peptide- or positive control-containing medium having the respective concentration were added, and cultured at 37° C. for 3 hours. The well not containing the sample was used as a negative control. After the culturing, ATP was measured using BacTiter-Glo Microbial Cell Viability Assay kit of PROMEGA, and compared with that in the negative control to obtain a relative value which was defined as a viability. The antibacterial activity was evaluated based on the viability at 3 hours later using ATP as an index.
(§4) The medium used in this test for bacteria was Mueller-Hinton broth. Independent experiments were carried out twice for each strain.

[11] = test system: Pseudomonas aeruginosa ATCC 27853; experiment: ATP Assay (viability at 3 hours), Table 6; type: cell-based; conditions: 3 h, 5 μg/mL
Experimental: as §2, §3, §4

[12] = test system: Staphylococcus aureus ATCC29213; experiment: ATP Assay (viability at 3 hours), Table 6; type: cell-based; conditions: 3 h, 5 μg/mL
Experimental: as §2, §3, §4

Compound	MIC Fusarium solani [1] [µg/mL]	MIC Alternaria alternata [2] [µg/mL]	MIC Trichophyton mentagrophytes [3] [µg/mL]	MIC Trichophyton rubrum [4] [µg/mL]	MIC Candida krusei [5] [µg/mL]	MIC Escherichia coli [6]	MIC Pseudomonas aeruginosa [7]	MIC Staphylococcus aureus [8]	MIC Staphylococcus epidermidis [9]	Escherichia coli ATP (viability, relative value to negative control) [10]	Pseudomonas aeruginosa ATP (viability, relative value to negative control) [11]	Staphylococcus aureus ATP (viability, relative value to negative control) [12]
C[C@@H]1[C@H](O)[C@@H](C)/C=C/C=C/C=C/C=C/C=C/C=C/C=C/[C@H](O[C@@H]2O[C@H](C)[C@@H](O)[C@H](N)[C@@H]2O)C[C@@H]2O[C@](O)(C[C@@H](O)C[C@@H](O)[C@H](O)CC[C@@H](O)C[C@@H](O)CC(=O)O[C@H]1C)C[C@H](O)[C@H]2C(=O)O [amphotericin B, reference compound]	1000 (≈ 1080 µM)	1000 (≈ 1080 µM)	125 (≈ 135 µM)	250 (≈ 271 µM)	2000 (≈ 2160 µM)	–	–	–	–	–	–	–
Ac-RLKRLGERLKRKIQKLIRL-NH2 [SRP-33]	–	–	–	–	–	8-16	8-16	16	8-16	2.9	2.8	1.6
GERLKRKIQKWIRW-NH2 [SRP-26]	–	–	–	–	–	16-32	16	16	16-32	9.0	6.2	12.9
GRLKRIGERLKRKIQKWIRW-NH2 [SRP-24]	–	–	–	–	–	16	8-16	16	8-32	8.2	1.3	2.7
GRLKRLGERLKRKIQKLIRL-NH2 [SRP-27]	–	–	–	–	–	16	8-16	16	8-16	5.6	2.1	3.2
GRLKRLGERLKRKIQKWIRW-NH2 [SRP-22]	–	–	–	–	–	8-16	8-16	8-16	8	4.5	1.4	5.0
GRLKRLGKRLKRKIQKLARL-NH2 [SRP-32]	–	–	–	–	–	16	8-16	16	4-8	7.0	1.6	5.2
GRLKRVGERLKRKIQKWIRW-NH2 [SRP-23]	–	–	–	–	–	16	8-16	8-16	8-16	2.8	1.5	3.0
KRLGERLKRKIQKLIRL-NH2 [SRP-30]	–	–	–	–	–	64	8-16	16-64	8-16	19.9	2.0	6.3
LKRLGERLKRKIQKLIRL-NH2 [SRP-29]	–	–	–	–	–	16-32	8	16-32	8	9.0	1.8	1.9
MGERLKRKIQKWIRW-NH2 [SRP-25]	–	–	–	–	–	16	16	16	8-32	23.5	15.4	10.9
RLGERLKRKIQKLIRL-NH2 [SRP-31]	–	–	–	–	–	32-64	16	32-64	8-16	27.4	9.7	19.7
RLKRLGERLKRKIQKL-NH2 [SRP-36]	–	–	–	–	–	16-32	8-16	16-32	8	6.4	2.0	3.6
RLKRLGERLKRKIQKLI-NH2 [SRP-35]	–	–	–	–	–	8-16	8-16	16-32	8	3.6	5.2	2.1
RLKRLGERLKRKIQKLIR-NH2 [SRP-34]	–	–	–	–	–	8-16	8-16	16-32	8-16	4.4	2.8	2.6
RLKRLGERLKRKIQKLIRL-NH2 [SRP-28]	–	–	–	–	–	16	4-8	16	8-16	7.1	1.4	5.2
